No end group written: not given here.
Target: T1, VPAC1R (Homo sapiens, UniProt P32241)
T1 construct: An HA signal peptide was inserted in place of the native signal peptide of the receptors; HA signal peptide (replaces the native signal peptide) (N); 3C protease cleavage sites (between FLAG and receptor, and between receptor and His) (internal); expressed in transfected cells; host or cells: COS-7 (transient, PEI)
T1 sequence (P32241 31-457): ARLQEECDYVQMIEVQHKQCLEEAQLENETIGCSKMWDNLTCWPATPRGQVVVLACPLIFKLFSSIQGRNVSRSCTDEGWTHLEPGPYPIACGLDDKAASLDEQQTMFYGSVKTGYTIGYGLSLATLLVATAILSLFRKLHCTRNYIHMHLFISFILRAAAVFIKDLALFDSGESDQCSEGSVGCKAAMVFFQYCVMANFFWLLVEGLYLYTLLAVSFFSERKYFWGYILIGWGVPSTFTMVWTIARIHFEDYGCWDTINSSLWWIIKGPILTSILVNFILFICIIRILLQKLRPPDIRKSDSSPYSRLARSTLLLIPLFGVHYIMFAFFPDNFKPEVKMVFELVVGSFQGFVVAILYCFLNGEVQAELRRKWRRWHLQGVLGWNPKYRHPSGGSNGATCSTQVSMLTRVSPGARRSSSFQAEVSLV
Assay: cAMP accumulation, chimeric peptides (Fig. 5a)
Assay type: cell-based
Settings: pEC50, VPAC1R cAMP, COS-7, three-parameter logistic
Procedure: COS-7 cells were used for the chimeric peptide and cysteine mutagenesis pharmacological assays due to their lack of endogenous expression of PAC1R and receptor activity-modifying proteins, reported to potentially heterodimerize with PAC1R and VPAC1R[42]. […] COS-7 cells were plated in 10 cm dishes at approximately 1 million cells/dish. Cells were transfected 24 h later, with 5 µg of either WT or mutant PAC1R or VPAC1R receptor DNA. DNA and PEI (in a 1:6 ratio) were each diluted in 150 mM NaCl, and then combined and incubated for 10 min, before the mixture was added to the 10 cm dish. The next day, cells were harvested from the 10 cm dishes using Trypsin-Versene (PBS + 0.5 mM EDTA, pH 7.4), and were seeded at a density of 15,000 cells/well into clear 96-well culture plates and incubated overnight at 37 °C in 5% CO2 for cAMP accumulation assay the next day.
The reaction was terminated after 30 min by aspiration of the buffer and addition of 50 μl of ice-cold ethanol. Upon evaporation of ethanol, 75 μl of lysis buffer (5 mM HEPES, 0.1% (w/v) OVA, 0.3% (w/v) Tween20, pH 7.4) was added to the cells. cAMP detection was performed using a LANCE cAMP Detection Kit (PerkinElmer) for the construct validation and cysteine mutagenesis pharmacological assays and cAMP Gs HiRange kit (Cisbio) for the chimeric peptide pharmacological assays. The plates were read using an EnVision plate reader with excitation at 320 nm and emission at 615 nm[45].
The pharmacological data in figures and tables are reported as mean + standard error of the mean (SEM) with the number of biological replicates indicated in the figure and table legends where “n” represents the number of biological replicates performed. Concentration-response data were analyzed in GraphPad Prism version 9.4.0 using a three-parameter logistic curve to derive pEC50 values for the cyclic AMP accumulation. Competition binding data were analyzed in GraphPad Prism using the one site—Fit log IC50 model to derive pIC50 values. For the cysteine mutagenesis data, comparisons of multiple different groups were performed using one-way analysis of variance (ANOVA), followed by Dunnett’s post-hoc test with the control group being the WT receptor, with significance accepted at p < 0.05. For the chimeric peptide data, comparisons of multiple different groups were performed using one-way ANOVA, followed by Tukey’s post-hoc test, with significance accepted at p < 0.05.

Row | Compound | EC50 (replicate n=1) | EC50 (replicate n=2) | EC50 (replicate n=3) | EC50 (replicate n=4) | EC50 (replicate n=5)
1 | CC[C@H](C)[C@H](NC(=O)[C@H](C)NC(=O)[C@H](CC(=O)O)NC(=O)[C@H](CO)NC(=O)[C@@H](N)Cc1cnc[nH]1)C(=O)N[C@@H](Cc1ccccc1)C(=O)N[C@H](C(=O)N[C@@H](CC(=O)O)C(=O)N[C@@H](CO)C(=O)N[C@@H](Cc1ccc(O)cc1)C(=O)N[C@@H](CO)C(=O)N[C@@H](CCCNC(=N)N)C(=O)N[C@@H](Cc1ccc(O)cc1)C(=O)N[C@@H](CCCNC(=N)N)C(=O)N[C@@H](CCCCN)C(=O)N[C@@H](CCC(N)=O)C(=O)N[C@@H](CCSC)C(=O)N[C@@H](C)C(=O)N[C@H](C(=O)N[C@@H](CCCCN)C(=O)N[C@@H](CCCCN)C(=O)N[C@@H](Cc1ccc(O)cc1)C(=O)N[C@@H](CC(C)C)C(=O)N[C@@H](C)C(=O)N[C@@H](C)C(=O)N[C@H](C(=O)N[C@@H](CC(C)C)C(N)=O)C(C)C)C(C)C)[C@@H](C)O [Ala4 PACAP27] | 2.25 nM | 2.52 nM | 9.38 nM | 1.73 nM | 12.4 nM
2 | HSDGVFTDNYTRLRKQMAVKKYLNSILN-NH2 [Gly4 VIP] | 1.26 nM | 0.995 nM | 1.64 nM | 1.7 nM | 1.39 nM

Reference: article PMC9668914, “Understanding VPAC receptor family peptide binding and selectivity” (Nature Communications, 2022)
